Measurements reported in publication PMC6381024, “Probing Anti-inflammatory Properties Independent of NF-κB Through Conformational Constraint of Peptide-Based Interleukin-1 Receptor Biased Ligands” (Frontiers in Chemistry, 2019).

Tests used:
[1] = system: p38 MAPK; test: IL-1β-induced p38 MAPK phosphorylation, Western blot in RAW Blue cells; assay type: cell-based; design: key to Western Blot p38 (heatmap grade of inhibition): 0: No effect; No effect 01234 Maximum inhibition/efficacy; No effect 01234 Maximum inhibition/efficacy; No effect 01234 Maximum inhibition/efficacy; 4: Maximum inhibition/efficacy; settings: for Western Blot p38 (heatmap grade of inhibition): RAW Blue cells, peptide 10^-6 M or Kineret 1.0 mg/mL 30 min, then IL-1β 100 ng/mL 15 min; for Inhibition of IL-1β-induced p38 phosphorylation: RAW-blue cells, 10^-6 M, 30 min, then IL-1β 15 min
Description: RAW Blue cells (Invivogen) were grown under standard conditions (37°C, 5% CO2) and maintained under passage number 15. Cells were equilibrated with 1, 5, or 6 (10^−6M) or Kineret (1.0 mg/mL) for 30 min, after which time they were exposed to IL-1β (100 ng/mL) for 15 min. Cells were harvested and lysed on ice for 30 min using a radioimmunoprecipitation assay buffer (Cell Signaling) supplemented with 1 mM phenylmethylsulfonyl fluoride (PMSF) and cOmplete™ EDTA-free protease inhibitor cocktail (Roche, Mannheim, Germany, prepared according to the manufacturer's instructions). Protein concentrations were determined using a Bradford protein assay (Bio-Rad) on 96-well plates with a microplate reader (EnVision Multilabel reader) measuring OD at […]. Bovine serum albumin serial dilutions were used to generate a standard curve. Lysates were then mixed with 4X reducing sample buffer (Bio-Rad).
Lysates were loaded (30 μg protein per well) in a 5% acrylamide stacking gel, and samples were electrophoresed in a 12% acrylamide resolving gel for 1.5 h at 120 V, followed by a 1 h transfer onto polyvinylidene difluoride (PDVF) membranes at 100 V. Membranes were blocked and incubated with 1:1,000 dilution of primary antibody and 1:20,000 dilution of secondary antibodies according to the manufacturer's instructions. Antibodies used were for phospho-p38 MAPK (Cell Signaling, #9211), p38 MAPK (Cell Signaling, #9212), SAPK/JNK (Cell Signaling, #9252), phospho-SAPK/JNK (Cell Signaling, #9251), ROCK2 (Thermo Fisher Scientific PA5-21131), phospho-ROCK2 (Thermo Fisher Scientific PA5-34895), and goat anti-rabbit conjugated to horseradish peroxidase (Abcam, ab6721). Membranes were imaged using an Amersham Imager 600 (GE Healthcare) using Clarity Western ECL Substrate (Bio-Rad). The intensity of protein bands was quantified using ImageJ and standardized using total (phosphorylated + non-phosphorylated) protein content. Data are representative of three independent experiments.
Figure 7 The effects of peptides 1, 5, and 6 on IL-1β-induced phosphorylation of JNK, ROCK2, and p38. Graphical representations of band density analysis of Western Blots, sorted into columns based on protein of interest (JNK, ROCK2, or p38) and rows by peptide configuration [(3R-) or (3S)]. RAW-blue cells were pretreated with peptides 1, 5, 6, Kineret, or vehicle for 30 min and then stimulated with IL-1β for 15 min. Images of representative Western Blots can be found in the Supplementary Figure 1. Results shown are the average of 3 independent experiments: ^*p < 0.05, ^**p < 0.01, ^***p < 0.001, ^****p < 0.0001 compared to group treated only with IL-1β. Treatment groups that are not labeled with asterisks are statistically non-significant compared to group treated only with IL-1β.

[2] = system: COX2; test: qPCR of IL-1β-induced COX-2 (PTGHS2) expression in HEK-Blue IL-33/IL-1β cells; assay type: cell-based, human; design: key to qPCR COX2 (heatmap grade of inhibition): 0: No effect; No effect 01234 Maximum inhibition/efficacy; No effect 01234 Maximum inhibition/efficacy; No effect 01234 Maximum inhibition/efficacy; 4: Maximum inhibition/efficacy; settings: for qPCR COX2 (heatmap grade of inhibition): HEK-Blue cells, peptide 10^-6 M or Kineret 1.0 mg/mL 30 min, then IL-1β 100 ng/mL 4 h (legend: overnight); for Suppression of COX2 transcription: HEK blue cells, 10^-6 M pre-treatment, IL-1β stimulation
Description: HEK-Blue IL-33/IL-1β cells were purchased from InvivoGen (San Diego, CA) and used at passages under 15. HEK-Blue cells were cultured in DMEM growth medium supplemented with 10% serum, 50 U/mL penicillin, […] streptomycin, […] zeocin, and […] hygromycin. Cells were grown in regular conditions (37°C, 5% CO2). Cells were serum starved overnight and treated with 100 ng/mL IL-1β for 4 h. Cells were pre-incubated for 30 min with peptides 1, 5, or 6 (10^−6M) or Kineret (1.0 mg/mL) prior to the experiments to reach equilibrium (n = 4 each treatment). Cells were harvested and incubated for 5 min in RIBOzol (AMRESCO). RNA was extracted according to manufacturer's protocol and RNA concentration and integrity were measured with a NanoDrop 1,000 spectrophotometer. A total of 500 ng RNA was used to synthetize cDNA using iScript Reverse Transcription SuperMix (Bio-Rad, Hercules, CA). Quantitative gene expression analysis was performed on Stratagene MXPro3000 (Stratagene) with SYBR Green Master Mix (Bio-Rad). Gene expression levels were normalized to 18S universal primer (Ambion Life Technology, Burlington ON, Canada). Genes analyzed include IL1β, IL6, and PTGHS2 [Prostaglandin H synthetase 2 or cyclooxygenase-2 (COX-2)]. Data are representative of 3 experiments (each with n = 4 per treatment group).
Figure 8 The effects of peptides 1, 5, and 6 on the expression of pro-inflammatory genes. HEK-Blue cells were pre-treated with peptides 1, 5, and 6 as above and stimulated with IL-1β overnight. qPCR was performed on cell lysates using 18S rRNA as internal control. Graphs are sorted in columns by gene of interest (COX-2, IL-1β, or IL-6) and rows by peptide configuration [(3R) or (3S)]. Results are representative of an average of 3 independent experiments (each with n = 4 per treatment group) and are expressed as a fold-change of the non-stimulated control: ^*p < 0.05, ^**p < 0.01, ^***p < 0.001, ^****p < 0.0001 compared to group treated only with IL-1β. Treatment groups that are not labeled with asterisks are statistically non-significant compared to group treated only with IL-1β.

Row | Substance | Western Blot p38 (heatmap grade of inhibition) [1] | qPCR COX2 (heatmap grade of inhibition) [2] | Inhibition of IL-1β-induced p38 phosphorylation [1] | Suppression of COX2 transcription [2]
1 | Kineret: FDA-approved recombinant IL-1 receptor antagonist | 4 | 4 | – | –
2 | H-D-Arg-D-Tyr-(S)-Agl-D-Val-D-Glu-D-Leu-D-Ala-NH2 [[(3S)-Agl^3]-1] | 0 | 4 | inactive | –
3 | H-D-Arg-D-Tyr-(3R,4R)-Hgl-D-Val-D-Glu-D-Leu-D-Ala-NH2 [[(3R,4R)-Hgl^3]-1] | 0 | 4 | inactive | –
4 | H-D-Arg-D-Tyr-(3R,4S)-Hgl-D-Val-D-Glu-D-Leu-D-Ala-NH2 [[(3R,4S)-Hgl^3]-1] | 4 | 4 | inhibited most effectively | –
5 | H-D-Arg-D-Tyr-(S)-Agl-(S)-Val-D-Glu-D-Leu-D-Ala-NH2 [[(3S)-Agl^3-(S)-Val^4]-1] | 2 | 1 | – | ability to suppress the transcription of all three genes was lost
6 | H-D-Arg-D-Tyr-(R)-Agl-(S)-Val-D-Glu-D-Leu-D-Ala-NH2 [[(3R)-Agl^3-(S)-Val^4]-1] | 4 | 1 | inhibited most effectively | ability to suppress the transcription of all three genes was lost
7 | H-D-Arg-D-Tyr-(R)-Agl-D-Val-D-Glu-D-Leu-D-Ala-NH2 [[(3R)-Agl^3]-1] | 0 | 3 | inactive | –
8 | H-D-Arg-D-Tyr-(3S,4R)-Hgl-D-Val-D-Glu-D-Leu-D-Ala-NH2 [[(3S,4R)-Hgl^3]-1] | 3 | 4 | – | –
9 | H-D-Arg-D-Tyr-(3R,4R)-Hgl-(S)-Val-D-Glu-D-Leu-D-Ala-NH2 [[(3R,4R)-Hgl^3-(S)-Val^4]-1] | 3 | 4 | – | –
10 | H-D-Arg-D-Tyr-D-Thr-D-Val-D-Glu-D-Leu-D-Ala-NH2 [Peptide 1] | 4 | 4 | inhibited the effects of all three kinases | strong suppression of transcription of all three genes
11 | H-D-Arg-D-Tyr-(3R,4S)-Hgl-(S)-Val-D-Glu-D-Leu-D-Ala-NH2 [[(3R,4S)-Hgl^3-(S)-Val^4]-1] | 2 | 4 | – | –
